Consider 20 compounds from PubChem BioAssay (NCI).

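Test compounds were applied to cells in 96-well plates for 48 hours at 5 doses. TGI denotes the concentration required for complete inhibition of growth.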

In the first test the test system is SF-268 CNS. Description: inhibition of tumour cell growth, NCI panel, 48 h.
Regarding `CC(C)c1ccc(/C=C2/C=C(c3ccc4ccccc4c3)OC2=O)cc1`, the TGI was above 100 µM.
The same measure, in the same setting: the same measure for `COc1cc(/C=C/C(=N\NS(=O)(=O)c2ccc(C)cc2)c2sc(NNC(C)=O)nc2C)ccc1O`: above 100 µM; for `Oc1ccc(-c2nc(-c3cccnc3)c(-c3ccc(F)cc3)[nH]2)cc1`: 49.8 µM; for `CCCCCCCCCCCOc1ccc(C(=O)C(=O)c2ccc(OCCCCCCCCCCC)c(OCCCCCCCCCCC)c2)cc1OCCCCCCCCCCC`: above 100 µM.
Still for that read-out and setting: then `COc1cc(/C=C2\S/C(=N/Nc3nc(-c4ccc(Br)cc4)cs3)NC2=O)cc(OC)c1OC`, with above 100 µM; and `CCOC(=O)Nn1c(C)nnc1-c1ccccc1`, with above 100 µM; and `COc1ccc(/C=C2\CCC(C)C3=C2NC(=S)NC3c2ccc(OC)c(OC)c2)cc1OC` (stereo not given), with above 31.6 µM.
The same measure, in the same setting: the same measure for `O=[N+]([O-])/C(C(Cl)=C(Cl)Cl)=C(\SCc1ccccc1)N1CCCCC1`: 74.3 µM; for `CC(C)/C(Cl)=N\OC(=O)Nc1ccc(S(N)(=O)=O)cc1`: 51.7 µM.
For the compound `CC1C=C(CCCCCCCCCCCC[C@@H](O)[C@@H]2CC[C@@H]([C@@H]3CC[C@@H](C(O)CCCCCCCCCCCCC4=C[C@H](C)OC4=O)O3)O2)C(=O)O1` (stereo not given in full), the TGI is above 100 µM.
In turn, `CNC(=O)OCC1=C(COC(=O)NC)C(C)N(c2ccc(OC)cc2)C1` (stereo not given) had a TGI above 100 µM.
Consider `O=C1c2ccccc2C2C1N2C(=O)C(F)(F)F` (stereo not given), for which the TGI was above 100 µM.
For `CC(=O)NC1=C(NCCC(C)C)C(=O)c2ccccc2C1=O`, the TGI was above 50 µM.
The compound `N#CC1=C(N)N(c2ccccc2)C(c2ccco2)C1(C#N)C#N` (stereo not given) gave a TGI above 100 µM.
The same measure, in the same setting: then `O=S1(=O)NC(=NCc2c[nH]c3ccccc23)N(c2ccccc2)c2ccncc21`, with 75.6 µM; and `CC(=O)NNc1nc(C)c(C(=O)NNC(=O)C(=O)Nc2c(Cl)cc([N+](=O)[O-])cc2Cl)s1`, with 86.1 µM; and `Cc1ccsc1/C=N/Nc1ncccn1`, with above 100 µM.
Same read-out and setting: the same measure for `N=c1n(C(=O)N2CCCC2)c2cc(Cl)ccc2n1C1=NCCN1`: above 100 µM; for `Nc1cccc2cc(Cl)cnc12`: above 100 µM.
Still for that read-out and setting: the same measure for `CCc1ccc(CCN2CCCCC2)nc1`: above 100 µM.

For another test, the system named is SK-MEL-5 melanoma. Description: inhibition of tumour cell growth, NCI panel, 48 h.
For `CC(C)c1ccc(/C=C2/C=C(c3ccc4ccccc4c3)OC2=O)cc1`, the TGI was 29 µM.
On the same count and under the same terms, then `COc1cc(/C=C/C(=N\NS(=O)(=O)c2ccc(C)cc2)c2sc(NNC(C)=O)nc2C)ccc1O`, with above 100 µM; and `Oc1ccc(-c2nc(-c3cccnc3)c(-c3ccc(F)cc3)[nH]2)cc1`, with 33.8 µM; and `CCCCCCCCCCCOc1ccc(C(=O)C(=O)c2ccc(OCCCCCCCCCCC)c(OCCCCCCCCCCC)c2)cc1OCCCCCCCCCCC`, with above 100 µM.
Compound `COc1cc(/C=C2\S/C(=N/Nc3nc(-c4ccc(Br)cc4)cs3)NC2=O)cc(OC)c1OC` came in with a TGI of 20.2 µM.
Same read-out and setting: then `CCOC(=O)Nn1c(C)nnc1-c1ccccc1`, with above 100 µM; and `COc1ccc(/C=C2\CCC(C)C3=C2NC(=S)NC3c2ccc(OC)c(OC)c2)cc1OC` (stereo not given), with 28.8 µM; and `O=[N+]([O-])/C(C(Cl)=C(Cl)Cl)=C(\SCc1ccccc1)N1CCCCC1`, with 31.4 µM.
Same read-out and setting: then `CC(C)/C(Cl)=N\OC(=O)Nc1ccc(S(N)(=O)=O)cc1`, with 29.4 µM; and `CC1C=C(CCCCCCCCCCCC[C@@H](O)[C@@H]2CC[C@@H]([C@@H]3CC[C@@H](C(O)CCCCCCCCCCCCC4=C[C@H](C)OC4=O)O3)O2)C(=O)O1` (stereo not given in full), with 27.4 µM; and `CNC(=O)OCC1=C(COC(=O)NC)C(C)N(c2ccc(OC)cc2)C1` (stereo not given), with above 100 µM.
Same read-out and setting: then `O=C1c2ccccc2C2C1N2C(=O)C(F)(F)F` (stereo not given), with above 100 µM.
For the compound `CC(=O)NC1=C(NCCC(C)C)C(=O)c2ccccc2C1=O`, the TGI was above 50 µM.
In turn, `N#CC1=C(N)N(c2ccccc2)C(c2ccco2)C1(C#N)C#N` (stereo not given) had a TGI of 32.3 µM.
Consider `O=S1(=O)NC(=NCc2c[nH]c3ccccc23)N(c2ccccc2)c2ccncc21`, for which the TGI is above 100 µM.
On the same count and under the same terms, the same measure for `CC(=O)NNc1nc(C)c(C(=O)NNC(=O)C(=O)Nc2c(Cl)cc([N+](=O)[O-])cc2Cl)s1`: above 100 µM.
Still for that read-out and setting: then `Cc1ccsc1/C=N/Nc1ncccn1`, with above 100 µM.
The same measure, in the same setting: then `N=c1n(C(=O)N2CCCC2)c2cc(Cl)ccc2n1C1=NCCN1`, with above 100 µM; and `Nc1cccc2cc(Cl)cnc12`, with above 100 µM.
In turn, `CCc1ccc(CCN2CCCCC2)nc1` came in with a TGI above 100 µM.

For the next test, the system named is U251 CNS. Description: inhibition of tumour cell growth, NCI panel, 48 h.
`CC(C)c1ccc(/C=C2/C=C(c3ccc4ccccc4c3)OC2=O)cc1` registered a TGI above 100 µM.
On to `COc1cc(/C=C/C(=N\NS(=O)(=O)c2ccc(C)cc2)c2sc(NNC(C)=O)nc2C)ccc1O`, for which the TGI is above 100 µM.
The same measure, in the same setting: then `Oc1ccc(-c2nc(-c3cccnc3)c(-c3ccc(F)cc3)[nH]2)cc1`, with 32.9 µM; and `CCCCCCCCCCCOc1ccc(C(=O)C(=O)c2ccc(OCCCCCCCCCCC)c(OCCCCCCCCCCC)c2)cc1OCCCCCCCCCCC`, with above 100 µM; and `COc1cc(/C=C2\S/C(=N/Nc3nc(-c4ccc(Br)cc4)cs3)NC2=O)cc(OC)c1OC`, with 16.3 µM.
Same read-out and setting: then `CCOC(=O)Nn1c(C)nnc1-c1ccccc1`, with above 100 µM; and `COc1ccc(/C=C2\CCC(C)C3=C2NC(=S)NC3c2ccc(OC)c(OC)c2)cc1OC` (stereo not given), with above 31.6 µM; and `O=[N+]([O-])/C(C(Cl)=C(Cl)Cl)=C(\SCc1ccccc1)N1CCCCC1`, with above 100 µM.
`CC(C)/C(Cl)=N\OC(=O)Nc1ccc(S(N)(=O)=O)cc1` displayed a TGI of 35.7 µM.
Take `CC1C=C(CCCCCCCCCCCC[C@@H](O)[C@@H]2CC[C@@H]([C@@H]3CC[C@@H](C(O)CCCCCCCCCCCCC4=C[C@H](C)OC4=O)O3)O2)C(=O)O1` (stereo not given in full): the TGI was above 100 µM.
